According to patent US20240139144A1, “COPPER CHELATOR, ANTICANCER AGENT AND PROPHYLACTIC OR THERAPEUTIC AGENT FOR WILSON'S DISEASE” (Murata Manufacturing Co., Ltd., priority 2021, published 2024):

Assays:
[1] = Evaluation of copper chelating action by LC-MS after addition of CuCl2; assay type: binding; settings: for copper chelating action: 10 mM compound in methanol, aqueous CuCl2 added to final 100 mM, shaken at 30° C. for 60 minutes, LC-MS; for peak of the ion of the compound (free compound) in the sample in which a copper ion was added / peak of the ion of the complex of the compound and a copper ion in the sample in which a copper ion was added: LC-MS positive mode, CuCl2 100 mM, 30° C., 60 minutes; for peak of the ion of the compound (free compound) in the sample in which a copper ion was added: m/z 379.00 for (1a), m/z 397.00 for (2a); for peak of the ion of the complex of the compound and a copper ion in the sample in which a copper ion was added: m/z 441.00 for (1a), m/z 459.00 for (2a)
Method: (Method for Evaluating Copper Chelating Action)
An aqueous CuCl2 solution was added to a methanol solution of 10 mM compound (1a) or 10 mM compound (2a) so as to have a final concentration of 100 mM, and the mixture was shaken at 30° C. for 60 minutes, and then analyzed by LC-MS. A methanol solution of 10 mM compound (la) or 10 mM compound (2a) to which an aqueous CuCl2 solution was not added was also analyzed by LC-MS.
(LC-MS measurement conditions)
Pure water to which 0.1% formic acid was added was used as a solvent A, and acetonitrile was used as a solvent B. The samples were separated on a reversed-phase column (Cosmosil 5.0C 18-MS-II 2.0×100 mm (manufactured by Nacalai Tesque, Inc.)). At this time, the flow rate was set to 0.2 ml/min, and elution was performed in a gradient mode in which the proportion of the solvent B was set to 2% until 2 minutes, and then changed from 2 to 98% from 2 to 15 minutes. The eluted sample was ionized by electrospray ionization method in a positive mode.

gram-positive bacteria = settings: against gram-positive bacteria; cited from earlier work
Candida albicans = settings: against Candida albicans; cited from earlier work

Row | Compound | copper chelating action [1] | peak of the ion of the compound (free compound) in the sample in which a copper ion was added [1] | peak of the ion of the complex of the compound and a copper ion in the sample in which a copper ion was added [1] | copper chelating action compared between compounds ([1]; comparison between FIGS. 1 and 2 and FIGS. 4 and 5) | antimicrobial activity (gram-positive bacteria) | antimicrobial activity (Candida albicans)
1 | [C-]#[N+][C@@H](Cc1ccc(O)c(-c2cc(C[C@H]([N+]#[C-])C(N)=O)ccc2O)c1)C(N)=O [compound (1a)] | has a copper chelating action | not observed | observed | stronger than that of the compound (2a) | – | –
2 | hazimycin A | – | – | – | – | antimicrobial activity | antimicrobial activity
3 | [C-]#[N+][C@@H](Cc1ccc(O)c(-c2cc(C[C@H](NC=O)C(N)=O)ccc2O)c1)C(N)=O [compound (2a)] | has a copper chelating action | small | observed | – | – | –
